Entries after “also recorded” stand apart in the source; their conditions may differ.

One assay has as its system HSV-1. Description: Plaque-reduction assay with or without human complement. Type of assay: cell-based. To be noted: 2 μg/ml, with or without 10% human complement.
Assay [1] has as its system HSV1 strain 342 hv. To be noted: administration 24 h prior to viral inoculation; cited from earlier work.
The next assay relates to HSV-2 G. Nature of the assay: Virus neutralization end-point dilution assay on Vero cells, 100 TCID50. The format is cell-based. As to conditions: 100% reduction of CPE, 72 h. Here is the method:
(§1) Neutralizing activity of antibodies were determined by a standard end-point dilution assay using Vero cells grown as monolayers in microtiter plates. […] After 72 h incubation at 37° C. the antibody concentration required to prevent the formation of virus-induced CPE to 100% was determined as complete neutralization titer.
(§2) Neutralizing activity of antibodies was determined by end-point dilution assay as described previously (16). Briefly, serial dilutions of antibodies were incubated with 100 TCID50 of HSV-1 or HSV-2 for 1 h at 37° C. in cell culture medium. The antibody virus inoculum was applied to Vero cell monolayers grown in microtiter plates and cytopathic effect (CPE) was scored after 72 h incubation at 37° C. The antibody concentration required for reducing virus-induced CPE by 100% was determined as complete neutralization titer. […] For control purposes virus without antibody and antibody alone was used to induce maximal CPE or no CPE, respectively.

Assay [2] deals with HSV-1 F. The assay is described as above. The format is cell-based. As to conditions: Table 4, read-out: concentration required for 50% neutralization. As to the method:
as §1, §2

Assay [3] relates to HSV-1 F. Description: Cell-to-cell spread assay in Vero cell monolayers. Type of assay: cell-based. To be noted: 500 nM, 48 h. As to the method: Vero cells grown to confluency on glass cover slips in 24-weel tissue culture plates are infected for 4 h at 37° C. with a constant virus amount of 400 TCID50/well. One median tissue culture infective dose (1 TCID50) is the amount of a cytopathogenic agent, such as a virus, that will produce a cytopathic effect in 50% of the cell cultures inoculated. The virus inoculum is subsequently removed, the cells washed twice with PBS and further incubated for 2 days at 37° C. in 1 ml DMEM, 2% FCS, Pen/Strep containing an excess of either different anti-HSV antibodies or polyclonal anti-HSV control serum in order to prevent viral spreading via the supernatant Viral antigens of HSV-infected cells are detected with a fluorescence labelled polyclonal goat-anti-HSV-serum (BETHYL Labolatories, Montgomery, Tex. USA, Catalog No. A190-136F, Lot No. A190-136F-2).
Two days after infection spreading of the virus was detected with fluorescence labeled polyclonal goat-anti-HSV serum using a Leica DM IRE2 confocal microscope at 40-fold magnification.
For spreading within a host HSV uses two mechanisms: release of cell-free particles and direct, cell-to-cell spread. […] Viral antigens were detected by staining of HSV-1 infected cell monolayers with FITC-conjugated polyclonal goat-anti-HSV serum (BETHYL, Montgomery, Tex., USA) diluted 1:100 in blocking buffer. […]

Assay [4] relates to HSV1 strain 342 hv. Description: Intravaginal HSV1 infection of C57BL/6J mice, i.p. antibody. As to conditions: i.p. post infection. The format is in vivo. The text has this:
Therefore, C57BL/6J mice were infected by application of the HSV1 strain 342 hv on the intact vaginal mucosa membrane.

Assay [5] deals with HSV-1 F. Description: Passive immunization of NOD/SCID mice 24 h before intravaginal HSV-1 challenge. Type of assay: in vivo. Here is the method: Mice were infected intravaginally with 1×10^6 TCID50/20 μl of the neurovirulent HSV-1 strain F. Infected mice with symptoms of weight loss, vulvitis/vaginitis or neurological diseases were killed, and their organs examined for infectious virus by titration on Vero cell monolayers as described previously. Non-infected mice were killed at day 30. Animals per group n=7.
Animals per group n=7 for PBS, n=9 all other groups.
Anesthetized female nonobese diabetic/severe combined immunodeficient (NOD-SCID) mice (NOD.CB17-Prkdc^scid/J, Charles River Laboratories, Research Models and Services, Sulzfeld, Germany), 6-8 weeks of age, were challenged intravaginally with 20 μl inoculum of 1×10^6 TCID50 HSV-1 F per mouse. Skin glue (Epiglu, Meyer-Haake Medical Innovations, Wehrheim, Germany) was applied onto the vulva to prevent discharge of the virus inoculum. […] Mice were examined daily after viral inoculation for loss of weight, vulvitis/vaginitis (redness, mucopurulent discharge and signs of inflammation) and neurological disease. Mice displaying any of theses symptoms were sacrificed immediately. […] Mice were assessed for infection by determination of virus titers from vaginal irrigations obtained on days 1, 2, 4, 6 and 8 after infection and at the time of death using the endpoint dilution assay on Vero cells. Viral loads in organs (spleen, adrenal gland, lung heart, liver, kidney, spinal cord, and brain) of sacrificed mice were determined after homogenization of organs by titration on Vero cell monolayers as described elsewhere (41). Each test and control group contained 9-10 animals with detectable HSV-1 infection.
Natural killer (NK) cells accumulating at the site of HSV-2 infection in humans (28) are the early source of interferon-γ (45), which plays an essential role for the control of HSV infection (2, 45, 62).

As for “mAb 2c: murine monoclonal IgG2a antibody specific for glycoprotein B of HSV1 and HSV2; VH SEQ ID NO: 9, VL SEQ ID NO: 10”, the “complement dependence of HSV neutralization” value with HSV-1 is recorded as “neutralize HSV complement-independent”. Besides, the protection against infection result in the assay on HSV1 strain 342 hv [1] is “efficiently protected the animals against infection”. Further, the “Concentration for complete neutralization of 100 TCID50” value with HSV-2 G is listed as 31 nM. In addition, the IC50 with HSV-1 F [2] was 4.3 nM. Moreover, in the assay on HSV-1 F [3], the “inhibition of cell-to-cell spread” value is on record as “inhibit at a concentration of 500 nM the cell-to-cell spread completely; also recorded: completely abrogated HSV-1 spread”. Besides, in the assay on HSV1 strain 342 hv [4] (CD4+ and CD8+ depleted animals), the “inhibition of viral replication and prevention of lethal disease” value is “capable to inhibit viral replication as well as to prevent a generalized, lethal progressing disease with a high efficiency”. The “inhibition of viral propagation in vaginal mucosa and inflammatory lesions” value with HSV1 strain 342 hv [4] (immunocompetent and CD4+ T cell depleted animals) was “capable of inhibiting the viral propagation in the vaginal mucosa membrane and the formation of inflammatory lesions”. Besides, the “Median survival time prolonged compared to PBS control” value in the assay with HSV-1 F [5] (5 mg/kg i.v., 24 h prior to challenge) turned out to be 2.6 fold. Also, the “protection against lethal encephalitis” value in the assay on HSV-1 F [5] (15 mg/kg i.v., 24 h prior to infection) is given as “fully protected against lethal encephalitis; also recorded: full protection”. The “Viral titres in organs of protected mice” value in the assay on HSV-1 F [5] (15 mg/kg, detection limit) is < 1×10^2 TCID50. The “protection against lethal infection” value in the assay on HSV-1 F [5] (low antibody doses (2.5 mg/kg, 5 mg/kg)) is “not fully protected against lethal infection”. The survival result with HSV-1 F [5] (single i.v. dose of 5 mg/kg, 24 h prior to infection) was “prolongs the survival”.
